Reference: PMC5851678, “Phosphorylation decelerates conformational dynamics in bacterial translation elongation factors” (Science Advances, 2018)
Like-named read-outs stand apart in the source and are kept apart here.

Key:
Test in all cases: ITC
pEF-TuT382 [1] = biological target: T1, pEF-TuT382; design: species or system Escherichia coli; conditions: 50 mM Hepes pH 7.4, 40 mM NH4Cl, 2 mM MgCl2, 1 mM TCEP; phosphorylated at T382
T1 construct: gene tufA; full-length His-tagged EF-Tu phosphorylated at T382 in vitro by toxin Doc with ATP, repurified by SEC

EF-Tu [2] = biological target: T2, EF-Tu; design: species or system Escherichia coli; conditions: 50 mM Hepes pH 7.4, 40 mM NH4Cl, 2 mM MgCl2, 1 mM TCEP
T2 construct: gene tufA; full-length, His-tagged (pET-His-EF-Tu), expressed in E. coli BL21(DE3), nucleotide-free, unphosphorylated
Description: ITC on EF-Tu | consistent with the affinities measured with GDPNP

EF-Tu [3] = biological target: T2, EF-Tu; type: binding, Escherichia coli; conditions: 20 °C, 50 mM Hepes pH 7.4, 40 mM NH4Cl, 2 mM MgCl2, 1 mM TCEP, nucleotide-free protein; read-out: affinity
pEF-TuT382 [4] = biological target: T1, pEF-TuT382; type: binding, Escherichia coli; conditions: 50 mM Hepes pH 7.4, 40 mM NH4Cl, 2 mM MgCl2, 1 mM TCEP, nucleotide-free protein, phosphorylated at T382

Row | Kd (pEF-TuT382 [1]) [nM] | Kd (EF-Tu [2]) [nM] | Kd (EF-Tu [3]) [nM] | Kd (pEF-TuT382 [4]; read-out: affinity) [nM] | Kd (pEF-TuT382 [4]; read-out: Kd) [nM] | SMILES
1 | 320 ± 1 | 128 ± 8 | – | – | – | Nc1nc2c(ncn2[C@@H]2O[C@H](COP(=O)(O)OP(=O)(O)NP(=O)(O)O)[C@@H](O)[C@H]2O)c(=O)[nH]1 [GDPNP, 5′-guanylyl imidodiphosphate]
2 | – | – | 4.5 | 5.7 | – | Nc1nc2c(ncn2[C@@H]2O[C@H](COP(=O)(O)OP(=O)(O)O)[C@@H](O)[C@H]2O)c(=O)[nH]1 [GDP]
3 | – | – | 81 | – | 90 | Nc1nc2c(ncn2[C@@H]2O[C@H](COP(=O)(O)OP(=O)(O)OP(O)(O)=S)[C@@H](O)[C@H]2O)c(=O)[nH]1 [GTPγS, guanosine-5′-(γ-thio)-triphosphate]
